Reference: paper PMC4302056 (Bioorganic & medicinal chemistry, 2014)
≈ marks a conversion by molar mass, not a printed value. Entries after “also recorded” stand apart in the source; their conditions may differ.

Experiments:
[1] = system: Histoplasma capsulatum; test: microbe, parasite or virus in culture; assay type: cell-based; conditions: for MIC50: Histoplasma capsulatum, 96 h, read-out: Histoplasma capsulatum MIC50; for anti-Histoplasma activity (in words): qualitative statement
[2] = system: Cryptococcus neoformans; assay type: cell-based
[3] = system: DU-145 human prostate cancer cells; conditions: read-out: IC50 of in vitro proliferation inhibition; cited from earlier work
[4] = system: Candida albicans; conditions: cited from earlier work
[5] = system: Blastomyces dermatitidis; conditions: cited from earlier work
[6] = system: Aspergillus fumigatus; conditions: cited from earlier work
[7] = system: Histoplasma yeast; conditions: inhibitory vs microbicidal; cited from earlier work

Row | SMILES | MIC50 [1] [µM] | anti-Histoplasma activity (in words) [1] | also measured
1 | O=C(Nc1ncc(Cc2ccccc2)s1)c1cnc(-c2cccs2)s1 [Compound 5h, N-(5-Benzylthiazol-2-yl)-2-(thiophen-2-yl)thiazole-5-carboxamide] | > 10 | – | –
2 | O=C(Nc1nc(-c2ccccc2)cs1)C1CCCC1 [Compound 15a, N-(4-Phenylthiazol-2-yl)cyclopentanecarboxamide] | – | no activity | –
3 | O=C(Nc1ncc(-c2ccccc2)s1)C1CCCCC1 [Compound 12b, N-(5-Phenylthiazol-2-yl)cyclohexanecarboxamide] | > 10 | – | –
4 | CC(C)C(=O)Nc1ncc(Cc2ccccc2)s1 [Compound 4b, N-(5-Benzylthiazol-2-yl)isobutyramide] | 6.7 (≈ 1.74 µg/mL) | – | –
5 | CN(C(=O)CCC1CCCCC1)c1ncc(Cc2ccccc2)s1 [Compound 14b, N-(5-Benzylthiazol-2-yl)-3-cyclohexyl-N-methylpropanamide] | > 10 | abolished or reduced activity | –
6 | Nc1ncc(Cc2ccccc2)s1 [Compound 3a, 5-Benzyl-2-thiazolamine] | > 10 | – | –
7 | O=C(CCC1CCCCC1)Nc1ncc(Cc2cccc(C(F)(F)F)c2)s1 [Compound 7a, N-{5-[3-(Trifluoromethyl)benzyl]thiazol-2-yl}-3-cyclohexanepropanamide] | – | lack of activity | –
8 | O=C(CCC1CCCCC1)Nc1ncc(CCc2ccccc2)s1 [Compound 11b, N-(5-Phenethylthiazol-2-yl)-3-cyclohexanepropanamide] | 0.7 ± 0.1 (≈ 0.24 µg/mL) | – | –
9 | CC(C)C(=O)Nc1ncc(CC2CCCCC2)s1 [Compound 13a, N-[5-(Cyclohexylmethyl)thiazol-2-yl]isobutyramide] | > 10 | no activity | –
10 | O=C(Nc1ncc(Cc2cccc3ccccc23)s1)C1CCCC1 [Compound 9c, N-[5-(1-Naphthalenylmethyl)thiazol-2-yl]cyclopentanecarboxamide] | – | – | anti-Cryptococcus activity (in words) [2]: anti-Cryptococcus activity
11 | O=C(CC1CCCCC1)Nc1nc(C23CC4CC(CC(C4)C2)C3)cs1 [Compound 15f, N-[4-(Adamantan-1-yl)thiazol-2-yl]-2-cyclohexylacetamide] | – | abolished activity | –
12 | O=C(Nc1ncc(Cc2ccccc2)s1)C1CCSCC1 [Compound 5a, N-(5-Benzylthiazol-2-yl)tetrahydro-2H-thiopyran-4-carboxamide] | 4.8 (≈ 1.53 µg/mL) | – | –
13 | O=C(Nc1ncc(Cc2ccccc2)s1)C1CCOCC1 [Compound 5b, N-(5-Benzylthiazol-2-yl)tetrahydro-2H-pyran-4-carboxamide] | > 10 | – | –
14 | O=C(/C=C/C1CCCCC1)Nc1ncc(Cc2ccccc2)s1 [Compound 4g, (E)-N-(5-Benzylthiazol-2-yl)-3-cyclohexylacrylamide] | > 10 | – | –
15 | O=C(CC1CCCCC1)Nc1ncc(Cc2cccc3ccccc23)s1 [Compound 9e, N-[5-(1-Naphthalenylmethyl)thiazol-2-yl]-2-cyclohexaneacetamide] | – | – | anti-Cryptococcus activity (in words) [2]: lost activity
16 | O=C(Nc1ncc(Cc2ccccc2)s1)N1CCOCC1 [Compound 5f, N-(5-Benzylthiazol-2-yl)morpholine-4-carboxamide] | > 10 | – | –
17 | NC(=O)c1cc(-c2ccccc2)sc1NC(=O)c1ccc2c(c1)OCCO2 [4H2, reference compound] | – | abolished or reduced activity | –
18 | O=C(Nc1ncc(CC2CCCCC2)s1)C12CC3CC(CC(C3)C1)C2 [Compound 13f, N-[5-(Cyclohexylmethyl)thiazol-2-yl]adamantane-1-carboxamide] | > 10 | no activity | –
19 | O=C(CCC1CCCCC1)Nc1nc(-c2ccccc2)cs1 [Compound 15b, N-(4-Phenylthiazol-2-yl)-3-cyclohexanepropanamide] | – | no activity | –

Row | SMILES | MIC50 [1] [µM] | anti-Histoplasma activity (in words) [1] | also measured
20 | O=C(CCC1CCCCC1)Nc1ncc(Cc2cccc3ccccc23)s1 [Compound 9f, N-[5-(1-Naphthalenylmethyl)thiazol-2-yl]-3-cyclohexanepropanamide] | – | – | anti-Cryptococcus activity (in words) [2]: lost activity
21 | O=C(CCC1CCCCC1)Nc1nnc(Cc2ccccc2)s1 [Compound 14a, N-(5-Benzyl-1,3,4-thiadiazol-2-yl)-3-cyclohexylpropanamide] | > 10 | abolished or reduced activity | –
22 | O=C(Nc1ncc(-c2ccccc2)s1)C1CCCC1 [Compound 12a, N-(5-Phenylthiazol-2-yl)cyclopentanecarboxamide] | > 10 | – | –
23 | O=C(Nc1ncc(Cc2ccccc2)s1)C1CCCC1 [Compound 4c, N-(5-Benzylthiazol-2-yl)cyclopentanecarboxamide] | 1.6 ± 0.1 (≈ 0.458 µg/mL) | – | anti-Cryptococcus activity (in words) [2]: anti-Cryptococcus activity
24 | Cc1nc(NC(=O)CCC2CCCCC2)sc1Cc1ccccc1 [Compound 14c, N-(5-Benzyl-4-methylthiazol-2-yl)-3-cyclohexylpropanamide] | > 10 | reduced anti-Histoplasma activity or were inactive | –
25 | O=C(CCC1CCCCC1)Nc1ncc(Cc2ccccc2)s1 [Compound 4f, N-(5-Benzylthiazol-2-yl)-3-cyclohexylpropanamide] | – | – | anti-Cryptococcus activity (in words) [2]: lost activity
26 | COc1ccc(Cc2cnc(NC(=O)/C=C/c3ccco3)s2)cc1 [Compound 6d, 3-(2-Furyl)-N-[5-(4-methoxybenzyl)-1,3-thiazol-2-yl]acrylamide] | – | did not have any antifungal activity | IC50 [3]: 15 nM
27 | O=C(CC1CCCCC1)Nc1ncc(Cc2ccccc2)s1 [Compound 4e, N-(5-Benzylthiazol-2-yl)-2-cyclohexylacetamide] | – | – | anti-Cryptococcus activity (in words) [2]: lost activity
28 | CC(C)(C)OC(=O)Nc1ncc(C(O)c2ccccc2)s1 (stereo not shown) [Compound 2a, tert-Butyl{5-[hydroxy(phenyl)methyl]thiazol-2-yl}carbamate] | > 10 | lack of activity | –
29 | O=C(Nc1nc(C23CC4CC(CC(C4)C2)C3)cs1)C1CCCCC1 [Compound 15e, N-[4-(Adamantan-1-yl)thiazol-2-yl]cyclohexanecarboxamide] | 2.5 ± 0.1 (≈ 0.861 µg/mL) | – | –
30 | O=C(Nc1ncc(Cc2ccccc2)s1)C(F)(F)F [Compound 4a, N-(5-Benzylthiazol-2-yl)trifluoroacetamide] | > 10 | – | –
31 | O=C(Nc1ncc(CC2CCCCC2)s1)c1ccccc1 [Compound 13e, N-[5-(Cyclohexylmethyl)thiazol-2-yl]benzamide] | 4.6 (≈ 1.38 µg/mL) | – | –
32 | O=C(Nc1ncc(Cc2ccccc2)s1)C1CCCCC1 [Compound 4d, N-(5-Benzylthiazol-2-yl)cyclohexanecarboxamide] | 1.6 ± 0.1 (≈ 0.481 µg/mL) | – | anti-Cryptococcus activity (in words) [2]: anti-Cryptococcus activity
33 | CC(C)C(=O)Nc1ncc(Cc2cccc3ccccc23)s1 [Compound 9b, N-[5-(1-Naphthalenylmethyl)thiazol-2-yl]isobutyramide] | – | – | anti-Cryptococcus activity (in words) [2]: lost activity
34 | O=C(Nc1nc(C23CC4CC(CC(C4)C2)C3)cs1)C1CCCC1 [Compound 15d, N-[4-(Adamantan-1-yl)thiazol-2-yl]cyclopentanecarboxamide] | 7.4 (≈ 2.45 µg/mL) | – | –
35 | O=C(CC1CCCCC1)Nc1ncc(CC2CCCCC2)s1 [Compound 13c, N-[5-(Cyclohexylmethyl)thiazol-2-yl]-2-cyclohexaneacetamide] | > 10 | no activity; also recorded: abolished activity | –
36 | O=C(Nc1ncc(CCc2ccccc2)s1)C1CCCC1 [Compound 11a, N-(5-Phenethylthiazol-2-yl)cyclopentanecarboxamide] | 0.9 ± 0.1 (≈ 0.27 µg/mL) | – | –
37 | O=C(Nc1ncc(Cc2cccc3ccccc23)s1)C1CCCCC1 [Compound 9d, N-[5-(1-Naphthalenylmethyl)thiazol-2-yl]cyclohexanecarboxamide] | – | – | inhibition of in vitro growth [4]: does not inhibit; inhibition of in vitro growth [5]: does not inhibit; anti-Cryptococcus activity (in words) [2]: anti-Cryptococcus activity; inhibition of in vitro growth [6]: does not inhibit; type of antifungal action [7]: inhibitory rather than microbicidal action
38 | O=C(Nc1ncc(Cc2ccccc2)s1)c1ccccc1 [Compound 4h, N-(5-Benzylthiazol-2-yl)benzamide] | > 10 | – | –
